This note sets out measurements from ChEMBL document CHEMBL3879905, “Methods of using macrocyclic modulators of the ghrelin receptor” (2013).

In data set [1] the test system is Rattus norvegicus. Briefly: Induction of gastric emptying of solid meal in Wistar rat gastroparesis model at 20 ug/kg, iv administered immediately post phenol red containing methylcellulose meal intake measured after 15 mins by colorimetric method relative to vehicle-treated control. Format: functional, Stomach.
In data set [2] the test system is Rattus norvegicus. Briefly: Gastrokinetic activity in Wistar rat gastroparesis model at 20 ug/kg, iv administered immediately post phenol red containing methylcellulose meal intake measured after 15 mins by colorimetric method relative to vehicle-treated control. Format: functional, organism-based.
Data set [3] concerns Rattus norvegicus. Briefly: Induction of gastric emptying of solid meal in Wistar rat gastroparesis model at 5 to 50 ug/kg, iv administered immediately post methylcellulose meal containing phenol red intake measured after 15 mins by colorimetric method. Format: functional, organism-based. As to conditions: Stomach.
The subject of data set [4] is Rattus norvegicus. Briefly: Effect on pulsatile growth hormone release in plasma of free moving Sprague-Dawley rat at 5 ug/kg, iv administered at 1100 and 1300 […] during 6 hrs of sampling period measured every 15 mins over 6 hrs of sampling period by radioimmunoassay relative to vehicle-treated control. Format: functional, organism-based.
Data set [5] concerns Rattus norvegicus. Briefly: Induction of gastric emptying of solid meal in Wistar rat gastroparesis model at 100 ug/kg, iv administered immediately post phenol red containing methylcellulose meal intake measured after 15 mins by colorimetric method relative to vehicle-treated control. In kind it is functional, Stomach.
Data set [6] can be described thus: Metabolic stability in human plasma assessed as compound recovery in presence of PBS at 2 hrs by LC-MS analysis. Format: ADME, cell-free. Conditions: read-out: Drug recovery.
A further data set deals with Cytochrome P450 3A4 (Homo sapiens, UniProt P08684). Briefly: Inhibition of human CYP3A4 at 0.0457 to 100 uM. In kind it is ADME.
Chain of Cytochrome P450 3A4 (P08684 whole entry): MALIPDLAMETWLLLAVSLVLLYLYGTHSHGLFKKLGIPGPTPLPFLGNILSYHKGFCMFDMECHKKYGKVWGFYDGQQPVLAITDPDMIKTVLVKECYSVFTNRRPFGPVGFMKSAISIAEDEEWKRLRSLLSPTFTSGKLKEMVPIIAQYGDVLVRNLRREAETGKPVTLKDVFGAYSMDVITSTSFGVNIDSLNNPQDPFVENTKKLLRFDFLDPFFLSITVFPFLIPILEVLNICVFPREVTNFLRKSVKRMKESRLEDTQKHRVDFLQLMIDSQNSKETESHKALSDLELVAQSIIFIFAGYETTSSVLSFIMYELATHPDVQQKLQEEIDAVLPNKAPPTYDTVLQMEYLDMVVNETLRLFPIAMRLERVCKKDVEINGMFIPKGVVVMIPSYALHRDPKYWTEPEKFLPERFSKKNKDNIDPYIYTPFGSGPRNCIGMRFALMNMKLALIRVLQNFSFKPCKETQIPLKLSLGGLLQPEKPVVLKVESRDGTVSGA
For data set [7], the system named is Rattus norvegicus. Briefly: Induction of gastric emptying of solid meal in Wistar rat gastroparesis model at 10 mg/kg, iv administered immediately post phenol red containing methylcellulose meal intake measured after 15 mins by colorimetric method relative to vehicle-treated control. Format: functional, Stomach.
For data set [8], the system named is Rattus norvegicus. Briefly: Gastrokinetic activity in Wistar rat gastroparesis model at 10 mg/kg, iv administered immediately post phenol red containing methylcellulose meal intake measured after 15 mins by colorimetric method relative to vehicle-treated control. Format: functional, organism-based.

The source made the active and inactive calls. The rule behind the calls is not given here.

In the data set on Rattus norvegicus [1], `C[C@H](NC(=O)[C@@H](Cc1c[nH]c2ccccc12)NC(=O)[C@@H](N)Cc1cnc[nH]1)C(=O)N[C@H](Cc1c[nH]c2ccccc12)C(=O)N[C@@H](Cc1ccccc1)C(=O)N[C@@H](CCCCN)C(N)=O` yielded an Activity of 40%. For the same compound, in the data set on Rattus norvegicus [2], the outcome was Active.

On to `CCCCCCCC(=O)OC[C@H](NC(=O)[C@H](CO)NC(=O)CN)C(=O)N[C@@H](Cc1ccccc1)C(=O)N[C@@H](CC(C)C)C(=O)N[C@@H](CO)C(=O)N1CCC[C@H]1C(=O)N[C@@H](CCC(=O)O)C(=O)N[C@@H](Cc1cnc[nH]1)C(=O)N[C@@H](CCC(N)=O)C(=O)N[C@@H](CCCNC(=N)N)C(=O)N[C@H](C(=O)N[C@@H](CCC(N)=O)C(=O)N[C@@H](CCC(N)=O)C(=O)N[C@@H](CCCNC(=N)N)C(=O)N[C@@H](CCCCN)C(=O)N[C@@H](CCC(=O)O)C(=O)N[C@@H](CO)C(=O)N[C@@H](CCCCN)C(=O)N[C@@H](CCCCN)C(=O)N1CCC[C@H]1C(=O)N1CCC[C@H]1C(=O)N[C@@H](C)C(=O)N[C@@H](CCCCN)C(=O)N[C@@H](CC(C)C)C(=O)N[C@@H](CCC(N)=O)C(=O)N1CCC[C@H]1C(=O)N[C@@H](CCCNC(=N)N)C(=O)O)C(C)C`, for which the result in the data set on Rattus norvegicus [3] and in the data set on Rattus norvegicus [4] was Active.

Take `C[C@@H]1CN[C@@H](C2CC2)C(=O)N(C)[C@H](C)C(=O)N[C@H](Cc2ccc(F)cc2)C(=O)NCCCc2ccccc2O1` [ULIMORELIN]: the Activity in the data set with Rattus norvegicus [5] is listed as 30 - 39%. In addition, the remaining at 2 h in data set [6] is 99%. The “inhibition (INH)” value at Cytochrome P450 3A4 was “Active”.

As for `CCN(CC)CCNC(=O)c1cc(Cl)c(N)cc1OC.Cl`, the Activity in the data set on Rattus norvegicus [7] turned out to be 41%. In the data set with Rattus norvegicus [8], the result was Active.
